This assay addresses T1, USP30 (Homo sapiens, UniProt Q70CQ3).
T1 construct: Catalog #E-582 residues 57-517; purchased E-582
T1 sequence (Q70CQ3 57-517): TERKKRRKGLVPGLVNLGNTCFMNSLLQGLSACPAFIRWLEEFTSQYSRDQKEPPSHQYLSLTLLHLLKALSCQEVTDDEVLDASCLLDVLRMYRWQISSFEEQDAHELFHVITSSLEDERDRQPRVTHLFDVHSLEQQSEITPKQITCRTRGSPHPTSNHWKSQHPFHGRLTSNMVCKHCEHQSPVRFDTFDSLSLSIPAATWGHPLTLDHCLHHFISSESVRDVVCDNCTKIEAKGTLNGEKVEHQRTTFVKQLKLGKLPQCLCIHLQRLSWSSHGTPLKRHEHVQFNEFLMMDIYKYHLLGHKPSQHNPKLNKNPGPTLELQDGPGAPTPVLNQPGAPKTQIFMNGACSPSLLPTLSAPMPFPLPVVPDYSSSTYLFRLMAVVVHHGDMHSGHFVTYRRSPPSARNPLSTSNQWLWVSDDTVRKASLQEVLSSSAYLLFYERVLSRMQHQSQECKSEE
In words: USP30 FP kinetic analysis (kobs/I, Ki, kinact) using Ub-Lys(TAMRA)-Gly. Type of assay: biochemical. The note with it: for kinact/KI: read-out: kobs/I. The method, then:
We further characterised inhibition kinetics for ABPs in a FP assay using Ub-Lys(TAMRA)-Gly. kobs/I, Ki and kinact determination assay was performed using 30 nM USP30 and 100 nM Ub-Lys(TAMRA)-Gly as described in ESI, ^† Section S3.1.c. FP was monitored kinetically over an hour after addition of the substrate, and response curves fitted to y = (vi/kobs) (1 − exp(−kobsx)) to calculate kobs/I, 5680 (95% Cl = 4723–6638) M^−1 s^−1 for IMP-2587, and 3021 (95% Cl = 2350–3693) M^−1 s^−1 for IMP-2586 (Fig. S1, ESI ^†).
4. Biochemical and biological methods and proteomics
1) Biochemical USP30 fluorescence polarisation (FP) assay using Ub-Lys(TAMRA)-Gly […]
USP30 was diluted in reaction buffer A (40 mM Tris, pH 7.5, 0.005% Tween 20, 0.5 mg/ml BSA, 5 mM betamercaptoethanol) and 10 μL of diluted 10.5 nM […]
b. USP30 biochemical kinetic assay
Reactions were performed in triplicate in black 384 well plates (small volume, Greiner 784076) in a final reaction volume of 20 ul. […]
Pherastar Plus (BMG Labtech). l Excitation 540 nm; l Emission 590 nm.
Inhibition kinetics for compound ABP 2 and ABP 4 were determined by preparing compound dilution plates at 21× final concentration in 50% DMSO in water. 50% DMSO (1 μL) or diluted compound (1 μL) was added to the reaction plate. Substrate Ub-TAMRA (200 nM, 10 μL) (final concentration: 100 nM) was prepared in buffer A described in section 3.1.a and added to the reaction plate. Reactions were initiated by the addition of USP30 (21 nM, 10 μL) (final concentration 10 nM), and fluorescence polarisation read immediately for 1 h in every 2 min. Analysis was performed in GraphPad Prism.
Kinetic progress curves were fitted to equation y = (vi/kobs) (1 − exp(−kobs*x)) to determine the kobs value (for first 30 min data). The kobs value was then plotted against the inhibitor concentration to […]

Setting [1] is: 30 nM USP30, 100 nM Ub-Lys(TAMRA)-Gly, nonlinear regression to kobs = kinact/(1 + (Ki/x)).

Structures are written as SMILES.

Consider `C#Cc1cccc(-c2cc(NC(=O)CC3CCN(C#N)C3)on2)c1` (centres unmarked) [IMP-2587], for which the kinact/KI is 5680 M⁻¹ s⁻¹. Moreover, under setting [1], the KI (inactivation) is 42.7 nM and the Ki worked out at 42.8 nM.

With `N#CN1CC[C@@H](NC(=O)c2cc(-c3ccccc3Oc3ccc(N=[N+]=[N-])cc3)n[nH]2)C1` [IMP-2586], the kinact/KI worked out at 3020 M⁻¹ s⁻¹. The Ki under setting [1] worked out at 5.6 nM.

What is called Ki is a measure of affinity in units of concentration, obtained from inhibition or displacement.

These data come from PMC11078216, “Discovery of potent and selective activity-based probes (ABPs) for the deubiquitinating enzyme USP30” (RSC Chemical Biology, 2024).
